Measured values as given in PMC9800739, “Epigenetic drugs in somatostatin type 2 receptor radionuclide theranostics and radiation transcriptomics in mouse pheochromocytoma models” (Theranostics, 2023).
“Also recorded” adds a separate entry of the source. Like-named read-outs stand apart in the source and are kept apart here.

Legend:
[1] = target: T1, SSTR2 (Mus musculus, UniProt P30875); assay: [68Ga]Ga-DOTA-TATE radioligand uptake in cells; assay type: cell-based; conditions: MPC cells; 37 °C; VPA 10^-3 mol/L; DAC 5×10^-7 mol/L; attributed to cytotoxic effects
T1 construct: endogenous in cells; host or cells: MPC and MTT mouse pheochromocytoma cells (cell homogenates), untreated or treated with VPA + DAC
Procedure: Cells were seeded into collagen-coated microplates or collagen-coated flasks 24 h before epigenetic treatment (ET) start and treated twice (24 h interval) with VPA and DAC, as single and combination doses, respectively. Treatment effects were investigated two to six days (d) after final ET. Preparation of epigenetic drugs is reported in Supplemental Information 1.1.
Radionuclide production and supply are described in Supplemental Information 1.2.
Cells were seeded into collagen-coated 24-well microplates (2.5×10^4/cm^2) and uptake of [^68Ga]Ga-DOTA-TATE was measured three and seven days after ET start. Cells were incubated with fresh cell culture medium containing 0.8 MBq/mL [^68Ga]Ga-DOTA-TATE (Am = 10 MBq/nmol), equivalent to 80 nmol/L, for 60 min at 4 °C or 37 °C. Cells were washed and lysed, and activity of cell lysates was measured as described previously. Total protein in cell lysates was measured using the Qubit protein assay (Thermo Fisher Scientific). Uptake of [^68Ga]Ga-DOTA-TATE was reported as % initial dose per mg of protein.

[2] = test system: MPC and MTT cells; assay: Viability assay (colorimetric tetrazolium dye); assay type: cell-based, mouse; conditions: MPC and MTT cells (similar); three days after treatment start; two treatments at 24 h interval
Procedure: Viability of cells seeded into collagen-coated 96-well microplates (6×10^4/cm^2) was measured three days after treatment start using a colorimetric tetrazolium dye assay [39]. Doxorubicin served as positive control.

[3] = test system: MPC tumors; assay type: in vivo, mouse; conditions: MPC
Procedure: During anesthesia, animals were continuously warmed at 37°C. […] Animals were sacrificed using CO2 inhalation and cervical dislocation.
107 (30%), muscle (0%), kidneys (25%), and liver (35%).
116 attenuation. Images were post-processed and analyzed using ROVER (ABX). Three-
118 kidneys (15%), and liver (25%). […]

[4] = test system: MTT tumors; assay: Tumor growth of MTT allografts; assay type: in vivo, mouse; conditions: PET cohorts; for Vtumor, ET start: day 0 baseline, mean ± SEM; for Vtumor, ET start + 4 d: day 4, mean ± SEM
Procedure: During anesthesia, animals were continuously warmed at 37°C. […] Animals were sacrificed using CO2 inhalation and cervical dislocation. […]
70 1.1 Preparation of epigenetic drugs
71 For in vitro application, VPA was freshly dissolved in cell culture medium and added to the
72 cells at final concentrations between 10‒5 and 10‒2 mol/L. DAC was dissolved in H2O to obtain
73 a 10‒4 mol/L stock solution that was stored at ‒20 °C. For each experiment, aliquots of the DAC
74 stock were thawed and added to the cells at final concentrations between 10‒8 and 10‒5 mol/L.
75 For in vivo application, VPA was dissolved at 0.26 mol/L in Dulbecco’s phosphate-buffered
76 saline. DAC was dissolved at 0.04 mol/L in acetic acid (9.6 mol/L) to obtain a stock solution
77 that was further diluted to 6.6×10‒4 mol/L in Dulbecco’s phosphate buffered. […]
88 1.3 Tumor volumes in animal cohorts
89 Animals with higher initial tumor volume were specifically included in cohorts that received
90 epigenetic drugs in order to compensate for the growth-reducing effects of ET and to match
91 tumor volumes as closely as possible across cohorts at the time of radiopharmaceutical injection

[5] = [64Cu]Cu-DOTA-TATE, 40‒60 min p.i., day 1 after final ET, control or VPA 250 mg/kg, DAC 1 mg/kg days −3 and 0, mean ± SEM

T1 sequence (P30875 whole entry): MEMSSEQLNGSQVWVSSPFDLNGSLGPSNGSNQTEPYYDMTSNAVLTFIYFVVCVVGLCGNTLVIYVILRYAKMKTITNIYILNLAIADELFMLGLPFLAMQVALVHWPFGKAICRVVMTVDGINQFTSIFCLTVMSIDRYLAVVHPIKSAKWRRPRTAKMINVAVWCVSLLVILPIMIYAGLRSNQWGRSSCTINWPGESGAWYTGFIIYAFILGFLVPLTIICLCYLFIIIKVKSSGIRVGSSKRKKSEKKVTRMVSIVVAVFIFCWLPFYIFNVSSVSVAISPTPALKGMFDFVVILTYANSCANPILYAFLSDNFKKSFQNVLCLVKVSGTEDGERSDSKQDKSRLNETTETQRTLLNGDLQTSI

SMILES	[68Ga]Ga-DOTA-TATE uptake (effect) [1]	LD50 [2] [mol/L]	SUVmean tumor [3, 5]	SUVmax ratio tumor / muscle ([3]; animal 1, 40‒60 min p.i.)	SUVmax tumor ([3]; animal 1, 40‒60 min p.i.)	SUVmean ratio tumor / muscle ([3]; animal 1, 40‒60 min p.i.)	SUVmean tumor ([3]; animal 1, 40‒60 min p.i.)	SUVmax ratio tumor / muscle ([3]; animal 2, 40‒60 min p.i.)	SUVmax tumor ([3]; animal 2, 40‒60 min p.i.)	SUVmean ratio tumor / muscle ([3]; animal 2, 40‒60 min p.i.)	SUVmean tumor ([3]; animal 2, 40‒60 min p.i.)	SUVmax ratio tumor / muscle ([3]; animal 3, 40‒60 min p.i.)	SUVmax tumor ([3]; animal 3, 40‒60 min p.i.)	SUVmean ratio tumor / muscle ([3]; animal 3, 40‒60 min p.i.)	SUVmean tumor ([3]; animal 3, 40‒60 min p.i.)	SUVmax ratio tumor / muscle ([3]; animal 4, 40‒60 min p.i.)	SUVmax tumor ([3]; animal 4, 40‒60 min p.i.)	SUVmean ratio tumor / muscle ([3]; animal 4, 40‒60 min p.i.)	SUVmean tumor ([3]; animal 4, 40‒60 min p.i.)	SUVmax ratio tumor / muscle ([3]; as SUVmean, mean ± SEM)	further results
Nc1ncn([C@H]2C[C@H](O)[C@@H](CO)O2)c(=O)n1 [DAC, 5-Aza-2'-deoxycytidine]	impairment of [68Ga]Ga-DOTA-TATE uptake; also recorded: reduced radiotracer uptake at 37 °C	6.3e-07	7.38 ± 0.74	57.8	11.5	68.2	5.09	65.6	13.9	96.7	6.74	58.7	15.3	93.2	7.52	69.1	15.2	80.6	7.99	63.8 ± 2.35	SUVmax ratio tumor / muscle ([3]; animal 5, 40‒60 min p.i.): 67.9; SUVmax tumor ([3]; animal 5, 40‒60 min p.i.): 20.6; SUVmean ratio tumor / muscle ([3]; animal 5, 40‒60 min p.i.): 104; SUVmean tumor ([3]; animal 5, 40‒60 min p.i.): 9.57; SUVmax tumor ([3]; as SUVmean, mean ± SEM): 15.3 ± 1.49; SUVmean ratio tumor / muscle ([3]; as SUVmean, mean ± SEM): 88.6 ± 6.39; Vtumor, ET start [4]: 0.23 ± 0.07 cm3; Vtumor, ET start + 4 d [4]: 0.24 ± 0.06 cm3
CCCC(CCC)C(=O)O [VPA, valproic acid]	impairment of [68Ga]Ga-DOTA-TATE uptake; also recorded: reduced radiotracer uptake at 37 °C	0.0013	6.91 ± 1.19	33.0	8.80	60.0	4.22	60.8	10.8	67.2	5.61	78.3	19.7	91.2	8.55	65.2	18.5	100	9.24	59.3 ± 9.54	SUVmax tumor ([3]; as SUVmean, mean ± SEM): 14.5 ± 2.73; SUVmean ratio tumor / muscle ([3]; as SUVmean, mean ± SEM): 79.6 ± 9.53; Vtumor, ET start [4]: 0.14 ± 0.05 cm3; Vtumor, ET start + 4 d [4]: 0.35 ± 0.05 cm3
